Source: US11253508B2, “PPARy agonist for treatment of progressive supranuclear palsy” (Coherus Biosciences, Inc., priority 2017, dated 2022)

What was measured:
adiponectin [1] = experiment: 14-day study of serum adiponectin levels in healthy subjects; format: in vivo, human
Procedure: A study was conducted to determine the effect of INT131 on serum adiponectin levels. Thirty healthy subjects were randomly selected to receive either placebo, 0.1 mg INT131, 1 mg INT131 or 4 mg INT131 daily for 14 days. To measure adiponectin levels blood was drawn at Days 1, 4, 8 and 14.

[2] = in words; cited from earlier work
HbA1c [3] = conditions: DePaoli et al. Diabetes Care 2014; cited from earlier work
[4] = test system: subjects with Relapsing Remitting Multiple Sclerosis (RRMS); experiment: 6-month placebo-controlled MRI study in Relapsing Remitting Multiple Sclerosis (CE lesions, T2 lesions, brain volume); format: in vivo, human; conditions: for cumulative CE lesions / reduction of CE lesion burden vs. placebo / cumulative CE lesions, LSMean: over 6 months; for cumulative CE lesions: complete case analysis, placebo 7.8; for cumulative CE lesions, LSMean: placebo LSMean 6.49
Procedure: 227 treatment-naive adult subjects (mean age 31 [range 18-50]; 65% female) were randomized into one of three arms: oral CHS-131 at 3 mg (n=76); oral CHS-131 at 1 mg (n=76); placebo (n=75), at 21 sites in Russia. 97% completed Part 1. Inclusion criteria: Relapsing Remitting Multiple Sclerosis (RRMS) for ≤3 years, ≥1 gadolinium-positive lesion within 1-year of enrollment, and an EDSS≤6 at screening. The patients underwent monthly MRI examinations with contrast to identify new inflammatory lesions. All […] were read blinded at the Buffalo Neuroimaging Center (Buffalo, N.Y.). In addition to CE lesions the images were scored for cumulative new/enlarged T2 lesions, and serial cortical and whole brain volumetric analysis.

HbA1c [5] = experiment: 24-week randomized, double-blind, placebo-controlled study: HbA1c levels in subjects with type 2 diabetes; format: in vivo, human; conditions: 24 weeks
[6] = subjects taking INT131 vs pioglitazone; DePaoli et al. Diabetes Care 2014; cited from earlier work
adiponectin [7] = experiment: 24-week randomized, double-blind, placebo-controlled study: serum adiponectin levels in subjects with type 2 diabetes; format: in vivo, human; conditions: for Mean Change in adiponectin from baseline to Week 24: LOCF; for Mean Change in adiponectin from baseline to Week 24 / Mean Adiponectin, Week 24 / Mean Adiponectin, Week 0: type 2 diabetes, serum; for Mean Adiponectin, Week 0: baseline (Week 0)
Procedure: A randomized, double-blind, placebo-controlled, 24-week study was conducted in which adiponectin levels were measured. […] 367 subjects with type 2 diabetes (TD2)—a disease in which patient adiponectin levels are reduced—were randomly assigned to receive either 0.5, 1, 2 or 3 milligrams (“mg”) of INT131 besylate, 45 mg of pioglitazone or placebo daily for 24 weeks. To measure adiponectin levels blood was drawn at Weeks 0, 2, 6, 12 and 24.
At baseline (Week 0) mean adiponectin levels were 1.94 micrograms per milliliter (“μg/mL”). The mean adiponectin levels at baseline and Week 24, and the mean change in adiponectin levels from baseline (Week 0) to Week 24 are disclosed in Table 1, below. The standard deviation for samples tested in each group is listed in (parenthesis). Mean baseline adiponectin values were similar for the treatment groups.

Compound: O=S(=O)(Nc1cc(Cl)c(Oc2cnc3ccccc3c2)c(Cl)c1)c1ccc(Cl)cc1Cl [INT131]
- change in serum adiponectin levels Day 1 to Day 14 and over placebo (adiponectin [1]; 0.1 mg daily for 14 days): no significant change
- change in serum adiponectin levels over placebo and from Day 1 to Day 14 (adiponectin [1]; 1 mg or 4 mg daily for 14 days): significant change
- crossing of the blood brain barrier [2]: readily crosses the blood brain barrier
- efficacy in reducing HbA1c levels versus 45 mg of pioglitazone (HbA1c [3]): equally efficacious
- cumulative CE lesions ([4]; 1 mg oral): 7.6
- reduction of CE lesion burden vs. placebo ([4]; 1 mg oral, p=ns, RRMS): 21%
- cumulative CE lesions, LSMean ([4]; 1 mg oral): 5.15
- reduction of new/enlarged T2 lesions compared to placebo ([4]; 1 mg, p=ns, RRMS): 14%
- cumulative CE lesions ([4]; 3 mg daily oral): 4.2 lesions
- reduction of CE lesion burden vs. placebo ([4]; 3 mg daily oral, p=0.003, RRMS): 52%
- cumulative CE lesions, LSMean ([4]; 3 mg daily oral): 3.10
- less cortical volume loss compared to placebo ([4]; 3 mg daily, 6 months, RRMS): 34.2%
- less whole brain volume loss compared to placebo ([4]; 3 mg daily, 6 months, RRMS): 50%
- reduction of new/enlarged T2 lesions compared to placebo ([4]; 3 mg, p=0.0767, RRMS): 30%
- reduction of HbA1c levels as compared to placebo (HbA1c [5]; 1, 2, and 3 mg doses daily): statistically significant reduction
- reduction of HbA1c levels compared with 45 mg of pioglitazone (HbA1c [5]; 2 and 3 mg doses daily): at least as well as 45 mg of pioglitazone
- side effects versus pioglitazone [6]: less edema, weight gain, and hemodilution
- Mean Change in adiponectin from baseline to Week 24 (adiponectin [7]; 0.5 mg daily): 0.56 µg/mL
- Mean Change in adiponectin from baseline to Week 24 (adiponectin [7]; 1 mg daily): 1.28 µg/mL
- adiponectin treatment comparison with placebo (adiponectin [7]; 1 mg, 2 mg, and 3 mg doses, p≤0.0109): statistically significant
- Mean Change in adiponectin from baseline to Week 24 (adiponectin [7]; 2 mg daily): 3.27 µg/mL
- Mean Change in adiponectin from baseline to Week 24 (adiponectin [7]; 3 mg daily): 3.83 µg/mL
- upregulation of serum adiponectin levels compared with pioglitazone (adiponectin [7]; 2 or 3 mg INT131 vs at least 22 times the amount of pioglitazone): greater upregulation
- Mean Adiponectin, Week 24 (adiponectin [7]; 0.5 mg daily): 2.28 µg/mL
- Mean Adiponectin, Week 24 (adiponectin [7]; 1 mg daily): 3.15 µg/mL
- Mean Adiponectin, Week 24 (adiponectin [7]; 2 mg daily): 5.14 µg/mL
- Mean Adiponectin, Week 24 (adiponectin [7]; 3 mg daily): 5.83 µg/mL
- Mean Adiponectin, Week 0 (adiponectin [7]; 0.5 mg INT131 besylate daily group): 1.73 µg/mL
- Mean Adiponectin, Week 0 (adiponectin [7]; 1 mg INT131 besylate daily group): 1.87 µg/mL
- Mean Adiponectin, Week 0 (adiponectin [7]; 2 mg INT131 besylate daily group): 1.87 µg/mL
- Mean Adiponectin, Week 0 (adiponectin [7]; 3 mg INT131 besylate daily group): 2.00 µg/mL

Compound: CCc1ccc(CCOc2ccc(CC3SC(=O)NC3=O)cc2)nc1 (stereo not shown) [Pioglitazone, pioglitazone, reference compound]
- Mean Change in adiponectin from baseline to Week 24 (adiponectin [7]; 45 mg daily): 2.96 µg/mL
- Mean Adiponectin, Week 24 (adiponectin [7]; 45 mg daily): 5.28 µg/mL
- Mean Adiponectin, Week 0 (adiponectin [7]; 45 mg pioglitazone daily group): 2.32 µg/mL
